# Source: patent US20190100519A1, “HYDROCHLORIDE SALT CRYSTAL OF DRUG FOR TREATING OR PREVENTING JAK-ASSOCIATED DISEASE AND PREPARATION METHOD THEREOF” (CRYSTAL PHARMATECH CO., LTD., priority 2016, published 2019)
# Read-outs that look alike come from different tables or passages of the source.
# Tests used:
# [1] = Particle size comparison experiment (laser particle size analyzer); format: physicochemical; conditions: wet method, Isopar G
# Method: Wet method was used and Isopar G was used as the dispersion medium. [table] The particle size distributions of obtained Form A (example 2), Form B (example 4), Form C (example 5), Form D (example 8) and the reference form were measured.
# [2] = Solubility assessment (saturated solutions, HPLC); format: physicochemical; conditions: for solubility at 1 h / solubility at 4 h: thermodynamic from solid
# Method: The concentration of the saturated solutions was measured through HPLC after 1 hour and 4 hours.
# [3] = Slurry experiment in different water activities (XRPD); format: physicochemical
# Method: The samples were centrifuged after 48 hours, and tested by XRPD.
# [4] = Stability assessment of Form A (storage, XRPD); format: physicochemical; conditions: two weeks
# Method: 5 samples (10.0 mg each) of Form A obtained from example 2 was stored at 5° C., 25° C./60% RH, 40° C./75% RH, 60° C./75% RH and 80° C. for two weeks, then XRPD test was performed after one week and two weeks. The results are depicted in FIG. 6 and FIG. 7. FIG. 6 is the XRPD overlay of one-week stability, and the patterns from top to bottom are initial Form A, and Form A after storing at 25° C./60% RH, 40° C./75% RH, 60° C./75% RH, 80° C. for one week, respectively. FIG. 7 is the XRPD overlay of two-week stability, and the patterns from top to bottom are initial Form A, and Form A after storing at 25° C./60% RH, 40° C./75% RH, 60° C./75% RH and 80° C. for two weeks, respectively.
# [5] = clinical trials; cited from earlier work
# [6] = simulated gastric fluid, Solubility SGF
SMILES,D10 [1],D50 [1],D90 [1],MV (average particle size calculated by volume) [1],solubility compared with reference form [2],Solubility Water ([2]; 1 h),Solubility SGF ([2]; 1 h),Solubility SGF ([2]; 4 h),Solubility Water ([2]; 4 h),other results
"O=C(Nc1nc2cccc(-c3ccc(CN4CCS(=O)(=O)CC4)cc3)n2n1)C1CC1 [Reference form, reference compound]",2.95 μm,6.29 μm,12.35 μm,7.24 μm,–,–,–,–,–,"solubility at 1 h ([2]; simulated gastric fluid (SGF), simulated gastric fluid, simulated gastric fluid (SGF), 1 h, read-out: Solubility SGF): 70 µg/mL; solubility at 4 h ([2]; simulated gastric fluid (SGF), simulated gastric fluid, simulated gastric fluid (SGF), 4 h, read-out: Solubility SGF): 920 µg/mL; solubility at 1 h ([2]; water, water, 1 h, read-out: Solubility Water): 810 µg/mL; solubility at 4 h ([2]; water, water, 4 h, read-out: Solubility Water): 3000 µg/mL; Final Form ([3]; H2O/ACN 1:99, water activity 0.2, slurry 48 hours): Form A; Final Form ([3]; H2O/ACN 2:98, water activity 0.4, slurry 48 hours): Form A; Final Form ([3]; H2O/EtOH 2:98, water activity 0.15, slurry 48 hours): Form A; Final Form ([3]; H2O/MeOH 7:93, water activity 0.2, slurry 48 hours): Form A; Final Form ([3]; H2O/MeOH 16:84, water activity 0.4, slurry 48 hours): Form A; stability under low water activity ([3]; low water activity): not stable"
Cl.O=C(Nc1nc2cccc(-c3ccc(CN4CCS(=O)(=O)CC4)cc3)n2n1)C1CC1 [Form A],1.72 μm,8.93 μm,62.08 μm,24.64 μm,higher solubility than the reference form,1080 µg/mL,–,–,–,"solubility at 1 h [2, 6]: 1280 µg/mL; solubility at 4 h [2, 6]: 1200 µg/mL; solubility at 4 h ([2]; water, Solubility Water): 2430 µg/mL; form change (XRPD) after storage ([4]; 5° C.): no form change; form change (XRPD) after storage ([4]; 25° C./60% RH): no form change; form change (XRPD) after storage ([4]; 40° C./75% RH): no form change; form change (XRPD) after storage ([4]; 60° C./75% RH): no form change; form change (XRPD) after storage ([4]; 80° C.): no form change"
Cl.O=C(Nc1nc2cccc(-c3ccc(CN4CCS(=O)(=O)CC4)cc3)n2n1)C1CC1 [Form D],5.77 μm,25.92 μm,82.42 μm,41.24 μm,higher solubility than the reference form,3000 µg/mL,2220 µg/mL,1150 µg/mL,2370 µg/mL,–
Cl.O=C(Nc1nc2cccc(-c3ccc(CN4CCS(=O)(=O)CC4)cc3)n2n1)C1CC1 [Form B],2.53 μm,20.30 μm,110.4 μm,44.66 μm,higher solubility than the reference form,5020 µg/mL,1450 µg/mL,960 µg/mL,3590 µg/mL,–
"O=C(Nc1nc2cccc(-c3ccc(CN4CCS(=O)(=O)CC4)cc3)n2n1)C1CC1 [Filgotinib, N-[5-[4-[(1,1-dioxo-1-thiomorpholin-4-yl)methyl]phenyl][1,2,4]triazole[1,5-a]pyridin-2-yl] cyclopropanecarboxamide]",–,–,–,–,–,–,–,–,–,anemia and abnormal increase in LDL [5]: does not cause an anemia and abnormal increase in LDL
Cl.O=C(Nc1nc2cccc(-c3ccc(CN4CCS(=O)(=O)CC4)cc3)n2n1)C1CC1 [Form C],1.87 μm,13.57 μm,66.16 μm,29.92 μm,higher solubility than the reference form,5180 µg/mL,1930 µg/mL,1120 µg/mL,3060 µg/mL,–
